Experimental data published in PMC4823954, “From fighting depression to conquering tumors: a novel tricyclic thiazepine compound as a tubulin polymerization inhibitor” (Cell Death & Disease, 2016).

Columns and labels:
Assay in all cases: KINOMEscan
Assay type in all cases: binding
Conditions in all cases: read-out: % Ctrl
CDK8 = biological target: T1, CDK8 (Homo sapiens, UniProt P49336)
T1 construct: purchased DiscoveRx KINOMEscan
How it was run: (§1)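 Competition binding panel of 442 non-mutant kinases: test compound at 5 and 10 μM competed with an active-site-directed ligand for 1 h with shaking. Bound kinase was eluted with 0.5 μM ligand and quantified by qPCR; %Ctrl = (compound − positive control)/(DMSO − positive control) × 100, lower meaning tighter binding.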

EPHA5 = biological target: T2, EPHA5 (Homo sapiens, UniProt P54756)
T2 construct: purchased DiscoveRx KINOMEscan
How it was run: as §1

PAK2 = biological target: T3, PAK2 (Homo sapiens, UniProt Q13177)
T3 construct: purchased DiscoveRx KINOMEscan
How it was run: as §1

ERK8 = biological target: T4, ERK8 (Homo sapiens, UniProt Q8TD08)
T4 construct: purchased DiscoveRx KINOMEscan
How it was run: as §1

SgK110 = biological target: T5, SgK110 (Homo sapiens, UniProt P0C264)
T5 construct: purchased DiscoveRx KINOMEscan
T5 sequence (P0C264 whole entry): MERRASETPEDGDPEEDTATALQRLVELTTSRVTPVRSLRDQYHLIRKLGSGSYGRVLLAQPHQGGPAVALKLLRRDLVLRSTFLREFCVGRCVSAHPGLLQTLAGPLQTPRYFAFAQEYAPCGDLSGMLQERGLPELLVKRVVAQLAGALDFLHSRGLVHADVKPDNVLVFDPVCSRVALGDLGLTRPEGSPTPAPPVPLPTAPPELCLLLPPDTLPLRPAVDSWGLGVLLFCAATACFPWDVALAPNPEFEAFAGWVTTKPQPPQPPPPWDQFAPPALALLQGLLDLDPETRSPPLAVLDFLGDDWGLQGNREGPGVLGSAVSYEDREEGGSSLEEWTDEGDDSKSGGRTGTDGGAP
How it was run: as §1

RIPK1 = biological target: T6, RIPK1 (Homo sapiens, UniProt Q13546)
T6 construct: purchased DiscoveRx KINOMEscan
How it was run: as §1

MARK2 = biological target: T7, MARK2 (Homo sapiens, UniProt Q7KZI7)
T7 construct: purchased DiscoveRx KINOMEscan
How it was run: as §1

PIK3C2G = biological target: T8, PIK3C2G (Homo sapiens, UniProt O75747)
T8 construct: purchased DiscoveRx KINOMEscan
T8 sequence (O75747 whole entry): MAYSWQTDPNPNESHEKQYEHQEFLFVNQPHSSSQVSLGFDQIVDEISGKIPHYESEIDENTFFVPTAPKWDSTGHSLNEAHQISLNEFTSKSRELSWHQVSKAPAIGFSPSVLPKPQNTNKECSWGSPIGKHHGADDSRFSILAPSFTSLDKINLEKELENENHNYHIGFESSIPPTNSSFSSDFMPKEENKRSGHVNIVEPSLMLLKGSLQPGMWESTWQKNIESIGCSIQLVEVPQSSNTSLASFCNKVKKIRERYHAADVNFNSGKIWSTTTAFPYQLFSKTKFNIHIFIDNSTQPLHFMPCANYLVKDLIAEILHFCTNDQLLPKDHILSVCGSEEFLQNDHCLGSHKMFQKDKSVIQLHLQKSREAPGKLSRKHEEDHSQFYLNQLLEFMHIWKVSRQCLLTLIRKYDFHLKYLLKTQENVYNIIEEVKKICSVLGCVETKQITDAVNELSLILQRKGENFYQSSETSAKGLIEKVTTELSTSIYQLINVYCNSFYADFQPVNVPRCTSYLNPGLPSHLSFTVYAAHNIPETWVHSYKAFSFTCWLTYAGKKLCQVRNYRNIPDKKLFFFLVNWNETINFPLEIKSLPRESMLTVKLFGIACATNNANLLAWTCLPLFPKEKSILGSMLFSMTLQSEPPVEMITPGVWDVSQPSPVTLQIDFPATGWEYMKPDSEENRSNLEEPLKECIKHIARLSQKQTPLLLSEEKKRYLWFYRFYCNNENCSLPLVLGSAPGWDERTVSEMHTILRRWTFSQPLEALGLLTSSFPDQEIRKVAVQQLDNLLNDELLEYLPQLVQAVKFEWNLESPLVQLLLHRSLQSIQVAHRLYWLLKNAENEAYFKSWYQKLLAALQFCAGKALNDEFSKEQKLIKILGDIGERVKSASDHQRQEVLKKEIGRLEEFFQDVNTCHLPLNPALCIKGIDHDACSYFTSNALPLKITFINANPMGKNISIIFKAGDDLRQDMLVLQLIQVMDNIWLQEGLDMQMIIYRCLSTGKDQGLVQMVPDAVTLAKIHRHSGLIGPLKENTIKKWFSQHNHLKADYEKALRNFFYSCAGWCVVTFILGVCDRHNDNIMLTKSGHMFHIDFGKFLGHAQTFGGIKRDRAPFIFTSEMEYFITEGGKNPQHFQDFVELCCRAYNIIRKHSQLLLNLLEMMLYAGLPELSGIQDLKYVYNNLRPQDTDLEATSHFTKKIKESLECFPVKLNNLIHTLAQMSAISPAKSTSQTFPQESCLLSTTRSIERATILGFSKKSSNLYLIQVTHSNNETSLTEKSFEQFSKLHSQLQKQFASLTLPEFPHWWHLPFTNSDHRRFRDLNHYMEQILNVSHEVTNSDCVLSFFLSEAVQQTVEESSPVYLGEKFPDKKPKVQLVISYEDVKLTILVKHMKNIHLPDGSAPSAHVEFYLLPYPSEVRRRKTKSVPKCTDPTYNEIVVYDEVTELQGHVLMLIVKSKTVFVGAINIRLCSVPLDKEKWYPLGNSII
How it was run: as §1

HUNK = biological target: T9, HUNK (Homo sapiens, UniProt P57058)
T9 construct: purchased DiscoveRx KINOMEscan
How it was run: as §1

MARK4 = biological target: T10, MARK4 (Homo sapiens, UniProt Q96L34)
T10 construct: purchased DiscoveRx KINOMEscan
How it was run: as §1

BTK = biological target: T11, BTK (Homo sapiens, UniProt Q06187)
T11 construct: purchased DiscoveRx KINOMEscan
How it was run: as §1

BIKE = biological target: T12, BIKE (Homo sapiens, UniProt Q9NSY1)
T12 construct: purchased DiscoveRx KINOMEscan
How it was run: as §1

CAMK2G = biological target: T13, CAMK2G (Homo sapiens, UniProt Q13555)
T13 construct: purchased DiscoveRx KINOMEscan
How it was run: as §1

MAP3K2 = biological target: T14, MAP3K2 (Homo sapiens, UniProt Q9Y2U5)
T14 construct: purchased DiscoveRx KINOMEscan
How it was run: as §1

AKT3 = biological target: T15, AKT3 (Homo sapiens, UniProt Q9Y243)
T15 construct: purchased DiscoveRx KINOMEscan
T15 sequence (Q9Y243 whole entry): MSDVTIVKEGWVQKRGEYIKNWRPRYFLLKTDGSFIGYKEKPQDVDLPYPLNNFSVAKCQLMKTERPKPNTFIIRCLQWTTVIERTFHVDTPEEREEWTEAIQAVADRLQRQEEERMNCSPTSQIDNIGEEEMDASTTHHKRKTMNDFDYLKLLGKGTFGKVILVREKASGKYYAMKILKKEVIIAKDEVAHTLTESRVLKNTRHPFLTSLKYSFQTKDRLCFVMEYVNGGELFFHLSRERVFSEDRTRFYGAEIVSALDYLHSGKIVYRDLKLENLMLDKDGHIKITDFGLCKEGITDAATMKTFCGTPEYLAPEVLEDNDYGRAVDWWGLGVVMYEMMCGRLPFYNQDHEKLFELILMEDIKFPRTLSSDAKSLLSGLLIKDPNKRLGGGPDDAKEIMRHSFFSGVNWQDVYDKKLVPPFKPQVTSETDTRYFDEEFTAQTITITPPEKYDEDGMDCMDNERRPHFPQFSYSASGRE
How it was run: as §1

CSF1R = biological target: T16, CSF1R (Homo sapiens, UniProt P07333)
T16 construct: purchased DiscoveRx KINOMEscan
T16 sequence (P07333 20-972): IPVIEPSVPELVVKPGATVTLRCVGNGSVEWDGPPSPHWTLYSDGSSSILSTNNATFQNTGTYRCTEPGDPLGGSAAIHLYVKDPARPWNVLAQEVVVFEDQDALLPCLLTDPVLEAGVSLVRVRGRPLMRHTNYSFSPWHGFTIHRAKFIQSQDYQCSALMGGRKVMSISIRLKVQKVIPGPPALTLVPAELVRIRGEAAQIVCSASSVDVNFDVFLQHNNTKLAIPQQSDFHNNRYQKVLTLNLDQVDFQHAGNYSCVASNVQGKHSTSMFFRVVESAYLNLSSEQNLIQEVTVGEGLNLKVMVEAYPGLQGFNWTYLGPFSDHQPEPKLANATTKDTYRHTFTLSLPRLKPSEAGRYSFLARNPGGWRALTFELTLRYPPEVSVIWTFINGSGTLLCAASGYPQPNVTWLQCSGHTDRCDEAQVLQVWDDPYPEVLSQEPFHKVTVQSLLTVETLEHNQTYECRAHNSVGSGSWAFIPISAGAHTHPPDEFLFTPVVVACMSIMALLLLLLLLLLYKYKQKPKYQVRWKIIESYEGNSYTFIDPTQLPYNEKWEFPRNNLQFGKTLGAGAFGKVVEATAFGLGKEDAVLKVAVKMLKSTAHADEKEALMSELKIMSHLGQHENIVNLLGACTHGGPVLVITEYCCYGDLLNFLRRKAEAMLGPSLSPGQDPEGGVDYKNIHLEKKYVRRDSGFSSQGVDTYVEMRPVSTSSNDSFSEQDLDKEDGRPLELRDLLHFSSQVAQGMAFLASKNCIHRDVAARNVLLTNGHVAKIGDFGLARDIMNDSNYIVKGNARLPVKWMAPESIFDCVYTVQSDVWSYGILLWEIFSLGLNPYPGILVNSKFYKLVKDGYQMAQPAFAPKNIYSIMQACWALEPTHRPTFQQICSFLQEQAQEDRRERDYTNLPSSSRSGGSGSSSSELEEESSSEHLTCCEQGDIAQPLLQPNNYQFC
How it was run: as §1

FER = biological target: T17, FER (Homo sapiens, UniProt P16591)
T17 construct: purchased DiscoveRx KINOMEscan
How it was run: as §1

IKK-beta = biological target: T18, IKK-beta (Homo sapiens, UniProt O14920)
T18 construct: purchased DiscoveRx KINOMEscan
How it was run: as §1

AXL = biological target: T19, AXL (Homo sapiens, UniProt P30530)
T19 construct: purchased DiscoveRx KINOMEscan
How it was run: as §1

MST3 = biological target: T20, MST3 (Homo sapiens, UniProt Q9Y6E0)
T20 construct: purchased DiscoveRx KINOMEscan
T20 sequence (Q9Y6E0 whole entry): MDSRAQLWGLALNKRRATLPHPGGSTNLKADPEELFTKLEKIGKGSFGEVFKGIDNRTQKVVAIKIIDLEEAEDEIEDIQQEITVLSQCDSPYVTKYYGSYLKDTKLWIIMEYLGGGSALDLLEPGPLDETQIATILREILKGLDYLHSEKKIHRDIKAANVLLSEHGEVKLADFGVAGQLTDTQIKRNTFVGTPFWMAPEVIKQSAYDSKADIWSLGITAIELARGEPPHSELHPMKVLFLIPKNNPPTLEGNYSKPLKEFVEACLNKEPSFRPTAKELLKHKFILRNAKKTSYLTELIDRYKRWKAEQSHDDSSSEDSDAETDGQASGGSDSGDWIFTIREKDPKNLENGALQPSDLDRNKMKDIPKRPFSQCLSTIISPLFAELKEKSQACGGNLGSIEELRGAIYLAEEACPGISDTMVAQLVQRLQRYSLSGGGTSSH
How it was run: as §1

PIK3CG = biological target: T21, PIK3CG (Homo sapiens, UniProt P48736)
T21 construct: purchased DiscoveRx KINOMEscan
How it was run: as §1

MEK4 = biological target: T22, MEK4 (Homo sapiens, UniProt P45985)
T22 construct: purchased DiscoveRx KINOMEscan
How it was run: as §1

[1] = biological target: T23, ABL1(M351T)-phosphorylated (Homo sapiens, UniProt P00519, M351T)
T23 construct: purchased DiscoveRx KINOMEscan

FGFR4 = biological target: T24, FGFR4 (Homo sapiens, UniProt P22455)
T24 construct: purchased DiscoveRx KINOMEscan
How it was run: as §1

GCN2(Kin.Dom.2,S808G) = biological target: T25, GCN2(Kin.Dom.2,S808G) (Homo sapiens, UniProt Q9P2K8, S808G)
T25 construct: GCN2(Kin.Dom.2,S808G); purchased DiscoveRx KINOMEscan

PRKCE = biological target: T26, PRKCE (Homo sapiens, UniProt Q02156)
T26 construct: purchased DiscoveRx KINOMEscan
T26 sequence (Q02156 whole entry): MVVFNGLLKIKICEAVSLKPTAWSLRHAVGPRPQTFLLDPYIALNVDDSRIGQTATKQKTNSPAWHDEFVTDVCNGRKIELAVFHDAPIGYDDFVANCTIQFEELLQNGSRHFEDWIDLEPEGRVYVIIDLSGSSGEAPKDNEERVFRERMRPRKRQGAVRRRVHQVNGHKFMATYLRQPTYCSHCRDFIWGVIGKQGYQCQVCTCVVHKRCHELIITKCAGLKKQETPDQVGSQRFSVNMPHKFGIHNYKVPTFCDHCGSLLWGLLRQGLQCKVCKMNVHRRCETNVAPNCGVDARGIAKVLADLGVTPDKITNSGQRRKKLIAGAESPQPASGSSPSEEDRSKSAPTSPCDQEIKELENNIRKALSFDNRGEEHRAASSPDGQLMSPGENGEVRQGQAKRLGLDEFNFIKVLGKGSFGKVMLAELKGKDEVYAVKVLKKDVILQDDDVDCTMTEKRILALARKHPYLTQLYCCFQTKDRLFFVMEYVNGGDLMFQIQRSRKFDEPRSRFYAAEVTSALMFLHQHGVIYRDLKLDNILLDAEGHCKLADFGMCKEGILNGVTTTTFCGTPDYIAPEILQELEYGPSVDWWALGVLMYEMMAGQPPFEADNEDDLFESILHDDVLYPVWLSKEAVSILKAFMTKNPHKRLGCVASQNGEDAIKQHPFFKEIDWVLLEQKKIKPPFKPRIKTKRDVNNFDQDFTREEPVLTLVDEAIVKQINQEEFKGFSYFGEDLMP
How it was run: as §1

PRKCD = biological target: T27, PRKCD (Homo sapiens, UniProt Q05655)
T27 construct: purchased DiscoveRx KINOMEscan
How it was run: as §1

[2] = biological target: T28, JAK1(JH2domain-pseudokinase) (Homo sapiens, UniProt P23458)
T28 construct: JAK1(JH2domain-pseudokinase); purchased DiscoveRx KINOMEscan
How it was run: as §1

TYRO3 = biological target: T29, TYRO3 (Homo sapiens, UniProt Q06418)
T29 construct: purchased DiscoveRx KINOMEscan
How it was run: as §1

YANK3 = biological target: T30, YANK3 (Homo sapiens, UniProt Q86UX6)
T30 construct: purchased DiscoveRx KINOMEscan
T30 sequence (Q86UX6 whole entry): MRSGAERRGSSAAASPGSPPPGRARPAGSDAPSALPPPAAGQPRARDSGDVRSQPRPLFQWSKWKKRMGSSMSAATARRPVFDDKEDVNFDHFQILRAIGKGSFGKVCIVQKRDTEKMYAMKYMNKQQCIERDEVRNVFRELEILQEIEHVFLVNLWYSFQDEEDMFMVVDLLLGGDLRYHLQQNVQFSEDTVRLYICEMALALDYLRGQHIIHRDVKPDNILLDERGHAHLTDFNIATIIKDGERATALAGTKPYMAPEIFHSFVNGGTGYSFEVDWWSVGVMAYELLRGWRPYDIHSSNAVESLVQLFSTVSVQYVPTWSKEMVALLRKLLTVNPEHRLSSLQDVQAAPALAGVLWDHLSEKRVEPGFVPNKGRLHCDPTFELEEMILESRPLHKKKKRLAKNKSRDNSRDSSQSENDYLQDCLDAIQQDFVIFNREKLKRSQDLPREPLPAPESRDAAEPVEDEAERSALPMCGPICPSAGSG
How it was run: as §1

Cc1ccc(C2=Nc3cccnc3S(=O)(=O)c3ccccc32)cc1 [TBPT, 6-(p-tolyl)benzo[f] pyrido[2,3-b][1,4] thiazepine 11,11-dioxide]
99%: remaining binding at 5 µM (TYRO3; 5 μM)
87%: remaining binding at 5 µM (BIKE; 5 μM)
92%: remaining binding at 5 µM (EPHA5; 5 μM)
89%: remaining binding at 5 µM (HUNK; 5 μM) | remaining binding at 5 µM (PIK3CG; 5 μM)
83%: remaining binding at 10 µM (BTK; 10 μM)
72%: remaining binding at 5 µM (PRKCD; 5 μM)
81%: remaining binding at 5 µM (MARK4; 5 μM) | remaining binding at 5 µM ([1]; 5 μM)
96%: remaining binding at 10 µM (CAMK2G; 10 μM) | remaining binding at 10 µM (MST3; 10 μM) | remaining binding at 5 µM (FGFR4; 5 μM) | remaining binding at 10 µM (YANK3; 10 μM)
98%: remaining binding at 10 µM (IKK-beta; 10 μM) | remaining binding at 5 µM (AXL; 5 μM)
86%: remaining binding at 5 µM (MARK2; 5 μM)
93%: remaining binding at 10 µM (BIKE; 10 μM) | remaining binding at 5 µM (CSF1R; 5 μM) | remaining binding at 5 µM (FER; 5 μM)
84%: remaining binding at 10 µM (MARK2; 10 μM) | remaining binding at 10 µM (HUNK; 10 μM) | remaining binding at 5 µM (IKK-beta; 5 μM)
95%: remaining binding at 5 µM (MST3; 5 μM)
82%: remaining binding at 5 µM (MAP3K2; 5 μM) | remaining binding at 5 µM (MEK4; 5 μM)
88%: remaining binding at 5 µM (YANK3; 5 μM)
80%: remaining binding at 10 µM (PIK3CG; 10 μM)
91%: remaining binding at 5 µM (BTK; 5 μM)
97%: remaining binding at 10 µM (FGFR4; 10 μM)
94%: remaining binding at 5 µM (CDK8; 5 μM) | remaining binding at 5 µM (ERK8; 5 μM)
100%: remaining binding at 10 µM (CDK8; 10 μM) | remaining binding at 10 µM (EPHA5; 10 μM) | remaining binding at 5 µM (PAK2; 5 μM) | remaining binding at 10 µM (PAK2; 10 μM) | remaining binding at 10 µM (ERK8; 10 μM) | remaining binding at 5 µM (SgK110; 5 μM) | remaining binding at 10 µM (SgK110; 10 μM) | remaining binding at 5 µM (RIPK1; 5 μM) | remaining binding at 10 µM (RIPK1; 10 μM) | remaining binding at 5 µM (PIK3C2G; 5 μM) | remaining binding at 10 µM (PIK3C2G; 10 μM) | remaining binding at 10 µM (MARK4; 10 μM) | remaining binding at 5 µM (CAMK2G; 5 μM) | remaining binding at 10 µM (MAP3K2; 10 μM) | remaining binding at 5 µM (AKT3; 5 μM) | remaining binding at 10 µM (AKT3; 10 μM) | remaining binding at 10 µM (CSF1R; 10 μM) | remaining binding at 10 µM (FER; 10 μM) | remaining binding at 10 µM (AXL; 10 μM) | remaining binding at 10 µM (MEK4; 10 μM) | remaining binding at 10 µM ([1]; 10 μM) | remaining binding at 5 µM (GCN2(Kin.Dom.2,S808G); 5 μM) | remaining binding at 10 µM (GCN2(Kin.Dom.2,S808G); 10 μM) | remaining binding at 5 µM (PRKCE; 5 μM) | remaining binding at 10 µM (PRKCE; 10 μM) | remaining binding at 10 µM (PRKCD; 10 μM) | remaining binding at 5 µM ([2]; 5 μM) | remaining binding at 10 µM ([2]; 10 μM) | remaining binding at 10 µM (TYRO3; 10 μM)
